In US20240228504A1, “SUBSTITUTED TRICYCLIC AMIDES, ANALOGUES THEREOF, AND METHODS USING SAME” (Arbutus Biopharma Corporation, priority 2020, published 2024):

System: HBV rcDNA in HepDE19 cells
Assay: HepDE19 assay with bDNA quantitation of HBV rcDNA
Format: cell-based, hepatitis B virus
Settings: Hepatitis B virus, HepDE19, HepDE19 assay, inhibition of rcDNA formation, bDNA quantitation; read-out: DE-19bDNA EC50

Row | SMILES | EC50 [nM]
1 | CN(C(=O)c1cccc(Br)c1)[C@@H]1COCc2[nH]c(=O)c3cc(F)c(F)cc3c21 [Compound 129, (S)-3-Bromo-N-(8,9-difluoro-6-oxo-1,4,5,6-tetrahydro-2H-pyrano[3,4-c]isoquinolin-1-yl)-N-methylbenzamide] | 90
2 | CN(C(=O)c1ccc(F)c(Br)c1)[C@@H]1COCc2[nH]c(=O)c3cc(F)c(F)cc3c21 [Compound 130, (S)-3-Bromo-N-(8,9-difluoro-6-oxo-1,4,5,6-tetrahydro-2H-pyrano[3,4-c]isoquinolin-1-yl)-4-fluoro-N-methylbenzamide] | 10
3 | CN(C(=O)c1ccc(Br)cc1)[C@@H]1COCc2[nH]c(=O)c3cc(F)c(F)cc3c21 [Compound 131, (S)-4-Bromo-N-(8,9-difluoro-6-oxo-1,4,5,6-tetrahydro-2H-pyrano[3,4-c]isoquinolin-1-yl)-N-methylbenzamide] | 10
4 | CN(C(=O)c1cccc(C#N)c1)[C@@H]1COCc2[nH]c(=O)c3cc(F)c(F)cc3c21 [Compound 135, (S)-3-Cyano-N-(8,9-difluoro-6-oxo-1,4,5,6-tetrahydro-2H-pyrano[3,4-c]isoquinolin-1-yl)-N-methylbenzamide] | 770
5 | CN(C(=O)c1ccc(OC(F)(F)F)c(F)c1)[C@@H]1COCc2[nH]c(=O)c3cc(F)c(F)cc3c21 [Compound 136, (S)-N-(8,9-Difluoro-6-oxo-1,4,5,6-tetrahydro-2H-pyrano[3,4-c]isoquinolin-1-yl)-3-fluoro-N-methyl-4-(trifluoromethoxy)benzamide] | 40
6 | Cc1ccc(C(=O)N(C)[C@@H]2COCc3[nH]c(=O)c4cc(F)c(F)cc4c32)cc1F [Compound 137, (S)-N-(8,9-Difluoro-6-oxo-1,4,5,6-tetrahydro-2H-pyrano[3,4-c]isoquinolin-1-yl)-3-fluoro-N,4-dimethylbenzamide] | 60
7 | CN(C(=O)[C@H](O)c1cccc(Cl)c1)[C@@H]1COCc2[nH]c(=O)c3cc(F)c(F)cc3c21 [Compound 138, (R)-2-(3-Chlorophenyl)-N-((S)-8,9-difluoro-6-oxo-1,4,5,6-tetrahydro-2H-pyrano[3,4-c]isoquinolin-1-yl)-2-hydroxy-N-methylacetamide] | 1200
8 | CN(C(=O)c1cc(F)c(C(F)(F)F)c(F)c1)[C@@H]1COCc2[nH]c(=O)c3cc(F)c(F)cc3c21 [Compound 139, (S)-N-(8,9-Difluoro-6-oxo-1,4,5,6-tetrahydro-2H-pyrano[3,4-c]isoquinolin-1-yl)-3,5-difluoro-N-methyl-4-(trifluoromethyl)benzamide] | 10
9 | CN(C(=O)c1csc(Cl)c1)[C@@H]1COCc2[nH]c(=O)c3cc(F)c(F)cc3c21 [Compound 140, (S)-5-Chloro-N-(8,9-difluoro-6-oxo-1,4,5,6-tetrahydro-2H-pyrano[3,4-c]isoquinolin-1-yl)-N-methylthiophene-3-carboxamide] | 100
10 | CN([C@@H]1COCc2[nH]c(=O)c3cc(F)c(F)cc3c21)S(=O)(=O)c1ccc(F)c(Cl)c1 [Compound 143, (S)-3-Chloro-N-(8,9-difluoro-6-oxo-1,4,5,6-tetrahydro-2H-pyrano[3,4-c]isoquinolin-1-yl)-4-fluoro-N-methylbenzenesulfonamide] | 18000
11 | CN([C@@H]1COCc2[nH]c(=O)c3cc(F)c(F)cc3c21)S(=O)(=O)c1cccc(Cl)c1 [Compound 144, (S)-3-Chloro-N-(8,9-difluoro-6-oxo-1,4,5,6-tetrahydro-2H-pyrano[3,4-c]isoquinolin-1-yl)-N-methylbenzenesulfonamide] | 12000
12 | CN([C@@H]1COCc2[nH]c(=O)c3cc(F)c(F)cc3c21)S(=O)(=O)c1cccc(C#N)c1 [Compound 145, (S)-3-Cyano-N-(8,9-difluoro-6-oxo-1,4,5,6-tetrahydro-2H-pyrano[3,4-c]isoquinolin-1-yl)-N-methylbenzenesulfonamide] | 5500
13 | CN([C@@H]1COCc2[nH]c(=O)c3cc(F)c(F)cc3c21)S(=O)(=O)c1ccc(F)c(C#N)c1 [Compound 146, (S)-3-Cyano-N-(8,9-difluoro-6-oxo-1,4,5,6-tetrahydro-2H-pyrano[3,4-c]isoquinolin-1-yl)-4-fluoro-N-methylbenzenesulfonamide] | 23000
14 | CCc1ccc(C(=O)N(C)[C@@H]2COCc3[nH]c(=O)c4cc(F)c(F)cc4c32)cc1F [Compound 147, (S)-N-(8,9-Difluoro-6-oxo-1,4,5,6-tetrahydro-2H-pyrano[3,4-c]isoquinolin-1-yl)-4-ethyl-3-fluoro-N-methylbenzamide] | 3300
15 | O=C(N[C@@H]1COCc2[nH]c(=O)c3cc(F)c(F)cc3c21)c1cc2ccccn2c1 [Compound 148, (S)-N-(8,9-Difluoro-6-oxo-1,4,5,6-tetrahydro-2H-pyrano[3,4-c]isoquinolin-1-yl)indolizine-2-carboxamide] | 760
16 | CN(C(=O)c1ccc(OC(F)F)c(F)c1)[C@@H]1COCc2[nH]c(=O)c3cc(F)c(F)cc3c21 [Compound 153, (S)-N-(8,9-Difluoro-6-oxo-1,4,5,6-tetrahydro-2H-pyrano[3,4-c]isoquinolin-1-yl)-4-(difluoromethoxy)-3-fluoro-N-methylbenzamide] | 150
17 | CN(C(=O)c1ccc(C(C)(C)O)cc1)[C@@H]1COCc2[nH]c(=O)c3cc(F)c(F)cc3c21 [Compound 154, (S)-N-(8,9-Difluoro-6-oxo-1,4,5,6-tetrahydro-2H-pyrano[3,4-c]isoquinolin-1-yl)-4-(2-hydroxypropan-2-yl)-N-methylbenzamide] | 1050
18 | CN(C(=O)c1cccc(C(C)(C)O)c1)[C@@H]1COCc2[nH]c(=O)c3cc(F)c(F)cc3c21 [Compound 155, (S)-N-(8,9-Difluoro-6-oxo-1,4,5,6-tetrahydro-2H-pyrano[3,4-c]isoquinolin-1-yl)-3-(2-hydroxypropan-2-yl)-N-methylbenzamide] | 4490
19 | O=C(N[C@@H]1COCc2[nH]c(=O)c3cc(F)c(F)cc3c21)c1cc2cc(F)c(F)cc2[nH]1 [Compound 156, (S)-N-(8,9-Difluoro-6-oxo-1,4,5,6-tetrahydro-2H-pyrano[3,4-c]isoquinolin-1-yl)-5,6-difluoro-1H-indole-2-carboxamide] | 490
20 | O=C(N[C@@H]1COCc2[nH]c(=O)c3cc(F)c(F)cc3c21)c1cc2c(F)cc(F)cc2[nH]1 [Compound 157, (S)-N-(8,9-Difluoro-6-oxo-1,4,5,6-tetrahydro-2H-pyrano[3,4-c]isoquinolin-1-yl)-4,6-difluoro-1H-indole-2-carboxamide] | 250
21 | O=C(N[C@@H]1COCc2[nH]c(=O)c3cc(F)c(F)cc3c21)c1ccc(C(F)(F)F)c(F)c1 [Compound 158, (S)-N-(8,9-Difluoro-6-oxo-1,4,5,6-tetrahydro-2H-pyrano[3,4-c]isoquinolin-1-yl)-3-fluoro-4-(trifluoromethyl)benzamide] | 580
22 | O=C(N[C@@H]1COCc2[nH]c(=O)c3cc(F)c(F)cc3c21)c1ccc(Cl)c(F)c1 [Compound 159, (S)-4-chloro-N-(8,9-difluoro-6-oxo-1,4,5,6-tetrahydro-2H-pyrano[3,4-c]isoquinolin-1-yl)-3-fluorobenzamide] | 660
23 | CN(C(=O)c1cc(F)c(Br)c(F)c1)[C@@H]1COCc2[nH]c(=O)c3cc(F)c(F)cc3c21 [Compound 172, 4-Bromo-N-(8,9-difluoro-6-oxo-2,4,5,6-tetrahydro-1H-pyrano[3,4-c]isoquinolin-1-yl)-3,5-difluoro-N-methylbenzamide] | 10
